In PMC8763382, “2-Sulfonylpyrimidines as Privileged Warheads for the Development of S. aureus Sortase A Inhibitors” (Frontiers in Molecular Biosciences, 2022):
Where “and” joins values, the source holds several entries; their conditions need not be identical. Equal entries are not always repeated.

Legend:
[1] = cysteine reactivity assay (competitive fluorescence assay with probe 8); format: physicochemical; details: phosphate buffer (1×PBS) pH 7.5
Text: In order to study the kinetics of sulfonylpyrimidines reacting with free cysteine in solution, a strategy for a competitive fluorescence-based assay was adapted from previous works ([Epps and Taylor, 2001]; [Sameshima et al., 2017]). […] The reaction of probe 8 with cysteine liberates 4-methylumbelliferone as a fluorometrically detectable product (Figure 7A), and thus, the fluorescence increase can be described by the second-order rate constant k probe (Equation 1).
Upon the addition of competitive and irreversible cysteine modifiers such as sulfonylpyrimidines, the fluorescence increase of the probe reaction was hyperbolically attenuated (Figure 7B). According to the conceptual deduction described previously ([Epps and Taylor, 2001]; [Sameshima et al., 2017]), the experimental fluorescence curves can be analyzed by nonlinear regression as first-order reaction progress curves (Equation 2). The parameter k obs describes the curvature corresponding to the sum of the competing kinetics (Equation 3). Under the assumptions that 1) the competitive reaction between sulfonylpyrimidines vs. probe with cysteine is started by simultaneous addition, and 2) sulfonylpyrimidines are added at a much higher concentration than cysteine (5 µM) and the probe (5 µM), the k obs values depend substantially on the k chem value. The compound-specific second-order inactivation parameter k chem can be determined by linear regression from the k obs values of the dilution series (Equation 4). d[FL]/dt=kprobe[Cys][probe] (1) FL=[Cys]total⋅kprobe [probe]/kprobe [probe] + kchem [sulfonylpyrimidine](1−e^−kobs⋅t) (2) kobs=kchem [sulfonylpyrimidine]+kprobe [probe] (3) kchem=kobs/[sulfonylpyrimidine] (4)
Kinetic characterization of the reaction between sulfonylpyrimidines and cysteine was performed in degassed phosphate buffer (1×PBS, pH 7.5) or individual cases in bicarbonate buffer (20 mM NaHCO3, 100 mM NaCl, pH 7.5). Three technical replicates were carried out for each sulfonylpyrimidine in black flat-bottom 96-well plates. For this purpose, 50 µL buffered solution (including 5% (v/v) DMSO) of the respective sulfonylpyrimidine derivative (final: 250–3 µM) and the cysteine reactive probe 8 (final: 5 µM) were premixed. Reactions were initiated by the addition of 50 µL cysteine (final: 5 µM), dissolved in the respective buffer, and monitored for 30 min at 30°C in an Infinite M200 Pro plate reader with λex 380 nm/λem 460 nm. To calculate k obs and k chem values, fluorescence curves were fitted using the same non-linear regression as for in vitro inhibition of SrtA ([Barthels et al., 2020]).

[2] = target: human protease urokinase plasminogen activator (uPA) (Homo sapiens, UniProt P00749); experiment: protease selectivity panel, fluorometric assay urokinase plasminogen activator; format: biochemical; details: 100 µM inhibitor; n. i. = no inhibition at 100 µM; read-out: uPA inhibition relative to the DMSO control
Protocol: (§1) To investigate how these sulfonylpyrimidines affect the activity of other cysteine and serine proteases, a selectivity panel was constructed from a matrix of 6 diverse sulfonylpyrimidines and 6 different proteases. The compounds were assayed at a final compound concentration of 100 µM for the cysteine proteases human cathepsin B (hCatB), cathepsin L (hCatL), and T. brucei rhodesain (Rd). Furthermore, the serine proteases NS2B-NS3 from Zika virus (ZIKV), the homologous protease from Dengue virus (DENV), and the human protease urokinase plasminogen activator (uPA) were tested for their susceptibility.
(§2) Fluorometric assays of the ZIKV/DENV NS2B/NS3 protease were performed as described previously ([Maus et al., 2021]). The assay was carried out in triplicates at 25°C in assay buffer (50 mM Tris, pH 9.0, 20% glycerol (v/v), and 1 mM CHAPS). 100 µM Boc-Gly-Arg-Arg-AMC (Bachem, Bubendorf, Switzerland) was used as a substrate. Fluorometric assays for cathepsin B, cathepsin L, and rhodesain (Calbiochem, Merck Millipore, Burlington, Massachusetts) were performed as described previously ([Klein et al., 2020a]). Cbz-Phe-Arg-AMC (Bachem, Bubendorf, Switzerland) was used as substrate (100 μM for cathepsin B, 6.5 μM for cathepsin L, and 10 µM for rhodesain). Fluorometric assays for urokinase plasminogen activator were performed as described previously ([Angelini et al., 2012]). 240 µM Cbz-Gly-Arg-Arg-AMC (Bachem, Bubendorf, Switzerland) was used as a substrate.

[3] = target: T1, human cathepsin B (hCatB) (Homo sapiens, UniProt P07858); experiment: protease selectivity panel, fluorometric assay cathepsin B; format: biochemical; details: 100 µM inhibitor; read-out: CatB inhibition relative to the DMSO control
T1 construct: purchased Calbiochem, Merck Millipore
Protocol: as §1, §2

S. aureus SrtA [4] = target: T2, S. aureus SrtA (Staphylococcus aureus, UniProt Q2FV99); experiment: fluorometric enzyme assay of SrtA transpeptidation (Abz-LPETG-Dap(Dnp)-OH substrate); format: biochemical
T2 construct: His tag (inferred from IMAC on a HisTrap column); made in house; host or cells: E. coli BL21 Gold (DE3)

S. aureus SrtA [5] = target: T2, S. aureus SrtA; experiment: as above; format: biochemical; details: for S. I. (k 2nd/k chem): SrtA k 2nd over cysteine k chem; for k inact: maximum inactivation rate; for k inact / KI (inactivation) / k 2nd: Tris pH 7.50, n. i. = <20% inhibition at 100 µM; for KI (inactivation): read-out: KI, dissociation constant of the reversible enzyme-inhibitor complex; for inhibition at 100 µM: read-out: SrtA inhibition relative to the DMSO control; for k 2nd: second-order rate of inhibition; for SrtA inhibition (in words): fluorometric enzyme assay, inhibitor concentration 100 µM
Protocol: To evaluate the inhibition potency of the parent sulfonylpyrimidine 4, this compound was tested by means of a fluorometric enzyme assay with recombinantly expressed S. aureus SrtA ([Schmohl et al., 2017b]) and Abz-LPETG-Dap (Dnp)-OH as substrate. […] To verify the irreversible mode of inhibition, we determined the maximum inactivation rate k inact, the dissociation constant of the reversible enzyme-inhibitor complex KI, and the second-order rate of inhibition k 2nd. For compound 4, a k inact = 0.00065 s^−1 was found, which is very low compared to other covalent SrtA inhibitors ([Chan et al., 2017]; [Barthels et al., 2020]; [Jaudzems et al., 2020]).
Inhibition assays of S. aureus SrtA transpeptidation reactions were performed as described previously ([Barthels et al., 2020]). Briefly, the recombinantly expressed SrtA (final concentration: 1 µM) was incubated in assay buffer (50 mM Tris, 150 mM NaCl, 5 mM CaCl2, pH 7.50) with 25 µM of the FRET-pair substrate Abz-LPETG-Dap (Dnp)-OH (Genscript, Piscataway, New Jersey) and 0.5 mM tetraglycine (Sigma Aldrich, St. Louis, Missouri). Inhibitors were added from DMSO stocks. Reactions were initiated by addition of SrtA and monitored for 30 min at 30°C in an Infinite M200 Pro plate reader with λex 320 nm/λem 430 nm (Tecan, Männedorf, Switzerland). Three technical replicates were carried out for each inhibitor in black flat-bottom 96-well plates (Greiner bio-one, Kremsmünster, Austria). The enzyme kinetics of irreversible SrtA inactivation were analyzed as described previously ([Barthels et al., 2020]).

T. brucei rhodesain (Rd) = target: T3, T. brucei rhodesain (Rd) (Trypanosoma brucei rhodesiense, UniProt Q95PM0); experiment: protease selectivity panel, fluorometric assay rhodesain; format: biochemical; details: 100 µM inhibitor, n. i. = no inhibition at 100 µM; for inhibition at 100 µM: read-out: Rd inhibition relative to the DMSO control
T3 construct: purchased Calbiochem, Merck Millipore
Protocol: as §1, §2

[6] = in-solution reaction with free cysteine (ESI-MS / LC/MS); format: physicochemical
Protocol: Thus, we determined the point of nucleophilic thiol attack by means of ESI mass spectrometry between the reaction of compound 7a and cysteine in phosphate buffered solution at pH 7.5.
Furthermore, the influence of different solvents on the reaction of sulfonylpyrimidines with thiols in solution was investigated.
To a solution of 100 µM cysteine in phosphate-buffered saline (1×, pH 7.5), compound 5a or 7a (100 μM, 5% DMSO) was added and incubated for 10 min at room temperature. The negative labeling control was performed by mock treatment with DMSO. Samples were analyzed by LC/MS using an Agilent 1100 series HPLC system with an Agilent Poroshell 120 EC-C18 column (150 × 2.10 mm 4 μm; mobile phase: ACN/H2O 45:55 + 0.1% formic acid; flow rate: 0.4 ml/min) and electron spray ionization with the Agilent 1100 series LC/MSD Trap in positive ionization mode.

[7] = target: T4, NS2B-NS3 from Zika virus (ZIKV) (Zika virus, UniProt Q32ZE1); experiment: protease selectivity panel, fluorometric assay ZIKV NS2B/NS3 protease; format: biochemical; details: 100 µM inhibitor; read-out: ZIKV inhibition relative to the DMSO control
T4 construct: The ZIKV NS2B/NS3 protease is a serine protease and contains two non-catalytic cysteine residues
Protocol: as §1, §2

DENV NS2B/NS3 protease = DENV NS2B/NS3 protease (Dengue virus type 2, UniProt P29990); experiment: protease selectivity panel, fluorometric assay DENV NS2B/NS3 protease; format: biochemical; details: 100 µM inhibitor, n. i. = no inhibition at 100 µM; for inhibition at 100 µM: read-out: DENV inhibition relative to the DMSO control
Protocol: as §1, §2

cathepsin L (hCatL) = target: T5, cathepsin L (hCatL) (Homo sapiens, UniProt P07711); experiment: protease selectivity panel, fluorometric assay cathepsin L; format: biochemical; details: 100 µM inhibitor; read-out: CatL inhibition relative to the DMSO control
T5 construct: purchased Calbiochem, Merck Millipore
Protocol: as §1, §2

His120 = His120 (UniProt position 120, ISIAGHTFIDR); details: free enzyme (inferred); cited from earlier work
Cys184 = Cys184 (UniProt position 184, LTLITCDDYNE); experiment: NMR; details: free enzyme (inferred); cited from earlier work

T3 sequence (Q95PM0 entry or part of it): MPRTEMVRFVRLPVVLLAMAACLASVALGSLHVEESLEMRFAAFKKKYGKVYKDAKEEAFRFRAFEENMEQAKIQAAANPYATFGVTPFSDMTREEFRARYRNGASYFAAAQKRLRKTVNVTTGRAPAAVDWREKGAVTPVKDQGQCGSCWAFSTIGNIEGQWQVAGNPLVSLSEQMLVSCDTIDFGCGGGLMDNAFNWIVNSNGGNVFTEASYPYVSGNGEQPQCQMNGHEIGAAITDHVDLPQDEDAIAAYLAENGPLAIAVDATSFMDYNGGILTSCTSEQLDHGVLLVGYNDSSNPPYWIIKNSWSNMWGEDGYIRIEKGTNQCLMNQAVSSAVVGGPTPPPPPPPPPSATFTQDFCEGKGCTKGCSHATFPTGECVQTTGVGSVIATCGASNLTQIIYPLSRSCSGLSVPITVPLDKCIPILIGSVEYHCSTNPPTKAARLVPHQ
Sequence of DENV NS2B/NS3 protease (P29990 1398-1437): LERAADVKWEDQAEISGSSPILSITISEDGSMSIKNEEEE
Sequence of DENV NS2B/NS3 protease (P29990 1476-1653): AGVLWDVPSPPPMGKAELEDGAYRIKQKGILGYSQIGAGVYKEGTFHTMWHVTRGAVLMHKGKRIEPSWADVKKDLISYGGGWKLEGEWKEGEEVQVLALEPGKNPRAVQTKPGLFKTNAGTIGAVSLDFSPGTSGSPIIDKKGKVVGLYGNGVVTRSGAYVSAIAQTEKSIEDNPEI
T4 sequence (Q32ZE1 1499-1676): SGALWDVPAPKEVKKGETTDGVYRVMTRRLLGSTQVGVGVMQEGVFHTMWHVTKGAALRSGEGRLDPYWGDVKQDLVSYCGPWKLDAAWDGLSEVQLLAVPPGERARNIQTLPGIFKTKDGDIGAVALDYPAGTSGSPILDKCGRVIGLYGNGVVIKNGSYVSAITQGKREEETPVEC
T4 sequence (Q32ZE1 1421-1460): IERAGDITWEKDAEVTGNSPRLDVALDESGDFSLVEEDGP
T2 sequence (Q2FV99 60-206): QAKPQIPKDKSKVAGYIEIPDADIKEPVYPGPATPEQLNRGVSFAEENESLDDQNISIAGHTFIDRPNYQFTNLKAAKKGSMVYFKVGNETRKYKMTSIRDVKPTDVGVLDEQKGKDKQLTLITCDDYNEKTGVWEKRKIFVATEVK
T5 sequence (P07711 114-333): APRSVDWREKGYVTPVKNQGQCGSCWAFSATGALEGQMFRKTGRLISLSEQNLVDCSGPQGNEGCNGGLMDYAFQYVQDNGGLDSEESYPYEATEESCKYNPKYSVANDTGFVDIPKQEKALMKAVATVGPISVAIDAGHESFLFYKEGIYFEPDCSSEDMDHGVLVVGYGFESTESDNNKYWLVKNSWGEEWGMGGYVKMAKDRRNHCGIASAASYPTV

Compound | Cysteine k chem [1] | inhibition at 100 µM [2] | inhibition at 100 µM [3] | melting point | S. I. (k 2nd/k chem) (S. aureus SrtA [5]) | k inact (S. aureus SrtA [5]) | KI (inactivation) (S. aureus SrtA [5]) | inhibition at 100 µM (S. aureus SrtA [5]) | k 2nd (S. aureus SrtA [5]) | inhibition at 100 µM (T. brucei rhodesain (Rd)) | inhibition at 100 µM [7] | inhibition at 100 µM (cathepsin L (hCatL)) | inhibition at 100 µM (DENV NS2B/NS3 protease) | SrtA inhibition (in words) (S. aureus SrtA [5]) | other results
CS(=O)(=O)c1ncc(Cl)c(C(=O)Nc2cccc(Oc3ccccc3)c2)n1 [Compound 5a] | 0.847 ± 0.277 M⁻¹ s⁻¹ | 23% | 6.6% | 156 °C | 159 | 0.0077 s⁻¹ and 0.00774 ± 0.00007 s⁻¹ | 57.6 ± 3.55 µM | 99% | 8,088 M^−1min^−1 and 8,088 ± 464 M^−1min^−1 | 24.6% | 6.4% | 8.8% | – | – | k 2nd (S. aureus SrtA [4]; pH 6.5, Tris or Bis-Tris buffer): 4,384 M^−1min^−1; k 2nd (S. aureus SrtA [4]; pH 7.0, Tris or Bis-Tris buffer): 8,436 M^−1min^−1; k 2nd (S. aureus SrtA [4]; zwitterionic HEPES buffer at pH 7.5): 7,956 M^−1min^−1; improvement of overall inhibition potency (k 2nd), factor (S. aureus SrtA [5]; versus parent compound 4): 10; time to quantitative reaction with cysteine ([6]; compound 100 µM, cysteine 100 µM, phosphate buffered solution pH 7.5): < 10 min; reactivity with cysteine (in words) ([6]; water/DMSO mixtures, no buffer): No reactivity; DENV inhibition relative to the DMSO control (DENV NS2B/NS3 protease): n. i.
CS(=O)(=O)c1ncc(Cl)c(C(=O)Nc2cccc(C(=O)c3ccccc3)c2)n1 [Compound 6a] | 1.06 ± 0.14 M⁻¹ s⁻¹ | 2.2% | 5.6% | 175 °C | 327 | 0.00986 ± 0.00128 s⁻¹ | 29.6 ± 9.39 µM | 98.4% | 20,785 ± 4,074 M^−1min^−1 | – | 18.6% | 18% | 5.1% | – | fold more potent based on the k 2nd value (S. aureus SrtA [5]; versus virtual screening hit 5a): 2.5 fold; Rd inhibition relative to the DMSO control (T. brucei rhodesain (Rd)): n. i.
CS(=O)(=O)c1ncc(Cl)c(C(=O)Nc2ccccc2Oc2ccccc2)n1 [Compound 6g] | – | 67% | 11.8% | 177 °C | – | – | – | 21.8% | – | 15% | 18.3% | 29.4% | 2.6% | complete abolition of inhibition | –
CS(=O)(=O)c1nc(Cl)cc(NC(=O)c2ccccc2Oc2ccccc2)n1 [Compound 6i] | 0 M⁻¹ s⁻¹ | 59.4% | 9.5% | 184 °C | – | – | – | 36% | – | 9.2% | 29.3% | 21.3% | 15% | complete loss of inhibition | –
CS(=O)(=O)c1ncc(Br)c(C(=O)Nc2cccc(Oc3ccccc3)c2)n1 [Compound 7b] | 1.735 ± 0.323 M⁻¹ s⁻¹ | 11.2% | 12.5% | 153 °C | 134 | 0.01285 ± 0.00147 s⁻¹ | 55.9 ± 11.6 µM | 99.2% | 13,998 ± 1,462 M^−1min^−1 | 4.7% | 18.3% | 28.5% | 5.2% | – | –
Sortase A (SrtA) (Staphylococcus aureus) | – | – | – | – | – | – | – | – | – | – | – | – | – | – | pKa (His120): 6.3; pKa (Cys184): 9.4
